In the OPERA property sets (Mansouri et al. 2018) one finds solubility data, which are given here for 38 compounds.

Values after ≈ are worked out from the molar mass of the structure shown.

The term solubility denotes the dissolved amount per volume that the medium holds. Under “25 °C”, `CCCC(C)C` displayed a solubility of 0.172 mM (≈ 14.8 µg/mL).

In turn, `FC(F)(F)Cl` displayed a solubility (25 °C) of 0.862 mM (≈ 90 µg/mL). This solubility lies about 5-fold higher than the previous one.

`CC[Si](CC)(CC)CC` showed a solubility (25 °C) of 0.00225 mM (≈ 0.325 µg/mL). Compared with the last compound, the solubility is about 380-fold lower.

The compound `CCCCOCCCC` had a solubility (25 °C) of 2.3 mM (≈ 300 µg/mL).

As for `CC1CCCO1` (stereo not drawn), where the note is “25 °C”, the solubility worked out at 1810 mM (≈ 156000 µg/mL).

The compound `C=C(C)C(=O)O` returned a solubility (20 °C) of 1030 mM (≈ 89000 µg/mL).

As for `CCC[N+](=O)[O-]`, under “25 °C”, the solubility amounted to 168 mM (≈ 15000 µg/mL).

For the compound `CCCCOC(=O)/C=C\C(=O)OCCCC`, the solubility (25 °C) worked out at 2.19 mM (≈ 500 µg/mL). This solubility is about 77-fold lower than that of the compound before.

Take `CC(=O)OC(C)CC(C)C` (stereo not drawn): the solubility (20 °C) came to 9.01 mM (≈ 1300 µg/mL).

The compound `COC(=O)c1ccccc1` gave a solubility (20 °C) of 15.4 mM (≈ 2100 µg/mL).

`CCOC(=O)/C=C\C(=O)OCC` had a solubility (30 °C) of 81.3 mM (≈ 14000 µg/mL).

`CCOCC` showed a solubility (25 °C) of 815 mM (≈ 60400 µg/mL).

Take `C=CC(=O)OC`: the solubility (25 °C) is 574 mM (≈ 49400 µg/mL). This solubility and that of the compound before are within 1.5-fold of each other.

Compound `N#Cc1ccccc1` returned a solubility (25 °C) of 19.4 mM (≈ 2000 µg/mL).

In the case of `CCCCC`, the solubility (25 °C) came to 0.527 mM (≈ 38 µg/mL).

`CCCCCCCCC(=O)O` showed a solubility (20 °C) of 1.79 mM (≈ 284 µg/mL).

Turning to `CCCCCCCCC`, under “25 °C”, the solubility stood at 0.00172 mM (≈ 0.22 µg/mL). This lies in the single-digit micromolar range.

Where the note is “25 °C”, `FC(F)(Cl)C(F)(F)Cl` registered a solubility of 0.761 mM (≈ 130 µg/mL).

`C=COCCCC` returned a solubility (20 °C) of 30 mM (≈ 3000 µg/mL).

For the compound `CCC(C)C`, under “25 °C”, the solubility came to 0.676 mM (≈ 48.8 µg/mL).

`CCCOCCC`: where the note is “25 °C”, the solubility turned out to be 48 mM (≈ 4900 µg/mL).

For `CCCCC(CC)CCl` (stereo not drawn), the solubility (20 °C) was 0.673 mM (≈ 100 µg/mL).

Consider `CCOC(=O)CC(C)C`, for which the solubility (20 °C) was 18.5 mM (≈ 2410 µg/mL).

Consider `Cc1ccc(Cl)c(Cl)c1`, for which the solubility (30 °C) is 0.161 mM (≈ 26 µg/mL).

The compound `CCCCC(CC)CN` (stereo not drawn) registered a solubility (20 °C) of 19.3 mM (≈ 2500 µg/mL). This lies in the millimolar range.

Under “25 °C”, `CCCCCC(C)=O` showed a solubility of 37.7 mM (≈ 4300 µg/mL). This lies in the millimolar range.

On to `CC(=O)OCC(COC(C)=O)OC(C)=O`, for which, where the note is “25 °C”, the solubility worked out at 266 mM (≈ 58000 µg/mL).

In the case of `CCCCCOC(C)=O`, the solubility (20 °C) was 13.2 mM (≈ 1710 µg/mL).

Where the note is “20 °C”, `CCCC(=O)OCC` gave a solubility of 47.3 mM (≈ 5500 µg/mL).

On to `CC(C)CCOCCC(C)C`, for which, for the setting “25 °C”, the solubility was 1.26 mM (≈ 200 µg/mL).

`CCCCOC(=O)CCCCCCCCC(=O)OCCCC` registered a solubility (20 °C) of 0.127 mM (≈ 40 µg/mL).

Turning to `C[Si](C)(C)C`, the solubility (25 °C) is 0.222 mM (≈ 19.6 µg/mL).

On to `C=COC(C)=O`, for which the solubility (20 °C) turned out to be 232 mM (≈ 20000 µg/mL).

Consider `FC(Cl)(Cl)C(F)(Cl)Cl`, for which the solubility (25 °C) was 0.617 mM (≈ 126 µg/mL).

Compound `CC(C)CC(C)O` (stereo not drawn) showed a solubility (25 °C) of 161 mM (≈ 16400 µg/mL). Against the preceding compound, the solubility is about 260-fold higher.

On to `COC(=O)/C=C\C(=O)OC`, for which the solubility (25 °C) is 555 mM (≈ 80000 µg/mL).

In turn, `CCCCCl` yielded a solubility (25 °C) of 11.9 mM (≈ 1100 µg/mL).

Under “20 °C”, `CCCCS` yielded a solubility of 6.62 mM (≈ 597 µg/mL).
